We go through 2 compounds from US9603896B2, “Peptide compounds and methods of production and use thereof” (priority 2012, dated 2017).

For assay [1], the system named is Pseudomonas aeruginosa ATCC® 27853™. The class given is cell-based. The following applies: for Effects of Peptide Compounds on Pseudomonas aeruginosa ATCC ® 27853 ™: Table 6, 5 × 10^3 CFU/ml unless italicized = 1 × 10^5 CFU/ml. The procedure:
(§1) The three peptide compounds BCC01-5RMP (SEQ ID NO:21), BCC02-5RMP (SEQ ID NO:22), and BCC03-5RMP (SEQ ID NO:23) were assayed for in vitro bactericidal activity against Pseudomonas aeruginosa, Escherichia coli, Salmonella typhimurium, and Acinetobacter baumannii. […] The CFU remaining at the end of 60 to 180 minute incubation was determined, and the data plotted as a log reduction in CFU/ml.
(§2) Tables 4-6 show the results of various peptides and peptide compounds against P. aeruginosa and E. coli strains. Tables 4 and 5 show the results of an investigation of the effects of peptide or peptide compounds BCC03-5RMP (SEQ ID NO:23), BCC03-MP (SEQ ID NO:24) and BCC03-5R (SEQ ID NO:20) against P. aeruginosa ATCC® strain 27853™ and E. coli ATCC® strain 25922™ (American Type Culture Collection, Manassas, Va.). […] Table 6 compares the activity of several other compounds, including the “5R” versions of BCC01, i.e., SEQ ID NO:18 (which comprises SEQ ID NO:1 with five additional arginines), the “5R” version of BCC02 (i.e., SEQ ID NO:19, which comprises SEQ ID NO:2 with five additional arginines), and BCC03-5RMP (SEQ ID NO:23), and BCC03-MP (SEQ ID NO:24, i.e., without the five additional R residues). The data generally indicate the superiority of BCC03-5RMP (SEQ ID NO:23) against E. coli, and the superiority of the 5R or 5RMP versions of the peptide over the “AEEA only” peptide against P. aeruginosa.
For FIGS. 10-13, in vitro bactericidal assays were performed using a starting inoculum of 1×10^6 CFU/ml of the bacterial suspension. The CFU remaining at the end of the 60-180 minute incubation was determined, and the data was plotted as log reduction in CFU/ml.
In particular, each of the test peptides (CAP37 peptides 120-146WR, 120-146WH, and 95-122 (SEQ ID NOs: 30, 31, and 26, respectively)) was used at 25, 12.5, 6.25, and 3.12 μM. Gentamicin was used at 4 μg/ml. 1×10^6/ml Acinetobacter baumannii ATCC® BAA-747″ or Pseudomonas aeruginosa ATCC® 27853™ (American Type Culture Collection, Manassas, Va.) were incubated with the peptides, negative buffer control (tryptone saline), and positive control gentamicin at pH 5.5 or 7.2. A 60 minute incubation was used for Acinetobacter baumannii ATCC® BAA747™, while a 180 minute incubation was used for Pseudomonas aeruginosa ATCC® 27853™. 50 μl aliquots were plated out on agar plates and incubated overnight. Colony forming units were counted after overnight incubation and CFU/ml calculated.
For FIG. 14, 1×10^6/ml Pseudomonas aeruginosa ATCC® 27853™ were incubated with each of the test peptides (CAP37 peptides 120-146WR, 120-146WH, 120-146QR, 120-146QH, 120-146QR-5RMP, and 120-146QH-5RMP (SEQ ID NOs: 30, 31, 28, 29, 32, and 33, respectively)) at 150, 75, and 37.5 μg/ml, or negative buffer control (tryptone saline), for 180 minutes at pH 5.5. 50 μl aliquots were plated out on agar plates and incubated overnight. Colony forming units were counted after overnight incubation and CFU/ml calculated.

Another assay has as its system swine skin. Description: Swine full thickness excisional dermal wound model. In kind it is in vivo. The following applies: for Mean Wound Healing (%): topical 3 mg/ml, 0.20 ml per wound daily. On the procedure: In this Example, peptide compounds of the presently disclosed and claimed inventive concept(s) were evaluated as to their activity on the dermal wound healing process in a clinically relevant swine full thickness excisional wound model. Three different peptide formulations (Group B, Peptide 95-122 (SEQ ID NO:26); Group C, Peptide 120-146WH (SEQ ID NO:31); and Group D, Peptide 120-146QH-5RMP (SEQ ID NO:33)) were each evaluated at the same concentration (3 mg/ml). Sterile saline served as the control (Group A).
Full thickness excisional wounds were induced on the dorsum of swine (N=3) using a 1.0 cm biopsy punch. Treatments were administered (0.20 ml) to each wound (N=6 wounds per group), and the wounds were dressed with standard occlusive dressing ([…]™, 3M Corporation, St. Paul, Minn.). Treatments were reapplied daily and dressings changed. Clinical wound healing observations and wound area (2 mm) measurements were performed on days 0, 3, 5, 7, 10, and 14 post-wounding. Wound area (2 mm) data were expressed as percentage (%) of wound healing. Animals were terminated on day 14 with wounds harvested and processed for histological evaluation. […] All peptide formulation treatment groups healed faster with greater rate of closure and re-epithelialization over time, as compared to the saline control (Group A).

The subject of assay [2] is E. coli ATCC® strain 25922™. In kind it is cell-based, Escherichia coli. The arrangement: Effects of Peptide Compounds on Escherichia coli ATCC ® 25922 ™: unit not given here. The note with it: Table 6, 5 × 10^3 CFU/ml unless italicized = 1 × 10^5 CFU/ml. On the procedure: as §1, §2
The mark [3] stands for this setting: wounds harvested day 14, 3 mg/ml topical.

Where two headings read alike, the source gives them in different places. Square brackets hold non-standard residues; d marks the D form. Peptide text beside a SMILES is read from it. AEEA = NCCOCCOCC(=O)O

In the case of `CC(C)C[C@H](NC(=O)[C@H](CCCNC(=N)N)NC(=O)CNC(=O)CNC(=O)[C@H](CO)NC(=O)[C@H](Cc1c[nH]cn1)NC(=O)[C@H](CCC(N)=O)NC(=O)[C@H](CO)NC(=O)CNC(=O)[C@H](Cc1c[nH]c2ccccc12)NC(=O)CNC(=O)[C@H](C)NC(=O)[C@@H](NC(=O)[C@H](CCC(N)=O)NC(=O)[C@H](CS)NC(=O)[C@H](CCCNC(=N)N)NC(=O)[C@@H](NC(=O)CNC(=O)[C@H](CCCNC(=N)N)NC(=O)[C@H](CCCNC(=N)N)NC(=O)[C@H](CCCNC(=N)N)NC(=O)[C@H](CCCNC(=N)N)NC(=O)COCCOCCNC(=O)COCCOCCN)[C@@H](C)O)C(C)C)C(=O)N[C@@H](CO)C(=O)N[C@@H](CCCNC(=N)N)C(=O)N[C@@H](Cc1ccccc1)C(=O)N1CCC[C@H]1C(=O)N[C@@H](CCCNC(=N)N)C(=O)N[C@@H](Cc1ccccc1)C(=O)N[C@H](C(=O)N[C@@H](CC(N)=O)C(=O)N[C@H](C(=O)N[C@@H](CCCNC(=N)N)C(=O)O)C(C)C)C(C)C` [120-146QH-5RMP] (H-[AEEA][AEEA]RRRRGTRCQVAGWGSQHSGGRLSRFPRFVNVR-OH), in assay [1] (pH 5.5, 180 minutes, 75 μg/ml), the “reduction in CFU (FIG. 14)” value is listed as approximately 6 log. In addition, the “Mean Wound Healing (%)” value in the assay on swine skin (Day 0) came to 0.0%; in the assay with swine skin (Day 3), 22.5%; with swine skin (Day 5) it was 34.1%; in the assay with swine skin (Day 7) it was 64.1%; in the assay with swine skin (Day 10), 93.7%; in the assay on swine skin (Day 14), 98.0%. Further, the “histology: epidermal resurfacing and maturation vs saline control” value in the assay with swine skin (day 14 post-wounding) was “greater extent of epidermal resurfacing and maturation of the epidermis”. Also, the “dermal wound healing vs saline” value in the assay with swine skin (topically at 3 mg/ml, over 14 days) is “accelerate dermal wound healing”. Further, the “Histopathology Results, Mean Angiogenesis” value in the assay on swine skin (setting [3]) is recorded as 1.3. Besides, the “Histopathology Results, Mean Epithelization” value with swine skin (setting [3]) worked out at 4.0. Besides, the “Histopathology Results, Mean Granulation” value in the assay with swine skin (setting [3]) turned out to be 4.0. Further, in the assay with swine skin (setting [3]), the “Histopathology Results, Mean Inflammation” value was determined as 0.5.

Consider “RRRRNQGRHFCGGALIHARFVMTAASCFQR (5-arginine peptide derivative of CAP37 peptide) [SEQ ID NO: 18 (Linear)]”, for which the “Effects of Peptide Compounds on Escherichia coli ATCC ® 25922 ™” value in assay [2] (43.8 μg/ml) is recorded as 93.9; in assay [2] (87.6 μg/ml), 95.3; in assay [2] (175.2 μg/ml), 97.1; in assay [2] (262.8 μg/ml) it was 100.0. Also, the “Effects of Peptide Compounds on Pseudomonas aeruginosa ATCC ® 27853 ™” value in assay [1] (0.137 μg/ml) is recorded as 25.4; in assay [1] (0.5475 μg/ml), 63.2; in assay [1] (2.19 μg/ml), 87.9; in assay [1] (8.76 μg/ml), 99.5; in assay [1] (87.6 μg/ml), 100.0.
